In publication PMC8728441, “Biosynthesis of the redox cofactor mycofactocin is controlled by the transcriptional regulator MftR and induced by long-chain acyl-CoA species” (The Journal of Biological Chemistry, 2021):

Key:
Design in all cases: species or system Mycobacterium smegmatis mc^2155
[1] = molecular target: T1, MftR S67W (Mycolicibacterium smegmatis, UniProt A0QSB5, S67W); assay: ITC binding of oleoyl-CoA to MftR variant
T1 sequence (A0QSB5 1-200 S67W): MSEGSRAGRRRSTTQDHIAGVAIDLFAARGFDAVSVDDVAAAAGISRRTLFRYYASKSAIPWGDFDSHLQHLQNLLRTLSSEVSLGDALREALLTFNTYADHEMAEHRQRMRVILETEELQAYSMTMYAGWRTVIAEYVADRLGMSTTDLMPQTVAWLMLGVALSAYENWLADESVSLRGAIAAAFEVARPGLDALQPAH
From the text: (§1) Next, we examined which amino acid residues contribute to the interaction between MftR and oleoyl-CoA. The crystal structure of Msmeg MftR is currently unavailable; however, an unpublished structure of Rhodococcus jostii RHA1 MftR has been deposited in the Protein Data Bank (PDB) (PDB ID: 2RAE, 54% identical, Fig. S3). Using this structure, we employed SwissDock to model oleoyl-CoA bound to MftR (Fig. 5) ([41], [42]). From the docked structure, we identified eight conserved residues on MftR that were expected to create the acyl-binding pocket or bind CoA through electrostatic interactions. Following single amino acid replacements of the residues, we measured the Kd values of the mutant proteins to oleoyl-CoA using ITC. For the putative acyl-binding pocket residues Phe65, Phe96, and Ile114, mutations to alanine led to no or modest change to the Kd for oleoyl-CoA (Table 1). […] Conversely, when His68 was mutated to alanine, binding of oleoyl-CoA by the protein was undetectable. To validate this observation, competitive EMSAs were carried out using the H68A mutant. […] Thus, it is highly likely that His68 is an important residue for oleoyl-CoA binding. To evaluate residues that were expected to interact with CoA, Gln15, Asp16, Ser67, and Asp66 were targeted. Of these, mutants of Asp16 and Ser67 had the greatest effect (Table 1). […] This latter observation was validated using competitive EMSAs (Fig. S4B). […] Taken together, it is likely that Ser67 and Asp16 participate in oleoyl-CoA binding, likely through electrostatic interactions.
(§2) Mutant strand synthesis reactions were performed according to the Agilent QuikChange site-directed mutagenesis protocol. The mftR_pET28a plasmid was used as a template for site-directed mutagenesis studies. Sequence-verified plasmids were transformed into E. coli BL21(DE3) pLysS cells for protein production and purified using the same protocol as wildtype MftR.
(§3) ITC was performed using TA Nano ITC. MftR was loaded in the sample cell at the concentration of 16 and 250 μM acyl-CoAs (C12–C18) loaded in the syringe. To minimize the effect of buffer mismatch, the stock concentration of acyl-CoAs was prepared using ITC buffer (50 mM Hepes, 50 mM NaCl, and pH 7.5), and the pH was adjusted to within 0.05 units. In addition, MftR was buffer exchanged into ITC buffer using a PD-10 column (GE Life Sciences). The volume of the titrant added at each injection into the sample cell was 2.22 μl. The time interval between the successive injections was 180 s. The temperature of the cell was kept at 25 °C. The data obtained were fit by independent one-site model using NanoAnalyze Data Analysis, version 3.8.0, that was provided with the instrument.

[2] = molecular target: T2, MftR Q15A (Mycolicibacterium smegmatis, UniProt A0QSB5, Q15A); assay: ITC binding of oleoyl-CoA to MftR variant
T2 sequence (A0QSB5 1-200 Q15A): T1 sequence (A0QSB5 1-200 S67W)
From the text: as §1, §2, §3

[3] = molecular target: MftR (WT) (Mycolicibacterium smegmatis, UniProt A0QSB5); assay: ITC binding of acyl-CoAs to MftR
Protocol: as §3

SMILES: CCCCCCCC/C=C\CCCCCCCC(=O)SCCNC(=O)CCNC(=O)[C@H](O)C(C)(C)COP(=O)(O)OP(=O)(O)OC[C@H]1O[C@@H](n2cnc3c(N)ncnc32)[C@H](O)[C@@H]1OP(=O)(O)O [oleoyl-CoA]
- Kd [1]: 8.3 ± 0.2 µM
- Kd [2]: 2 ± 0.1 µM
- Kd [3]: 1.4 ± 0.1 µM
- number of binding sites ([3]; ITC, WT MftR, one-site model): ~0.6 sites per monomer MftR
